Source: ChEMBL document CHEMBL5715954, “Silencing c-Myc translation as a therapeutic strategy through targeting PI3Kδ and CK1ε in hematological malignancies” (Blood, 2017)

Experiments:
Design in all cases: scale not given: the % may be the effect or the level left
[1] = molecular target: Homeodomain-interacting protein kinase 2 (Homo sapiens) (UniProt Q9H2X6); assay: Inhibition of human HIPK2 assessed as enzyme activity at 1 uM using myelin basic protein as substrate preincubated for 20 mins followed by [gamma-33P]-ATP addition and measured after 120 mins by radiometric Hot-SpotSM Kinase assay relative to control
[2] = molecular target: T1, Serine/threonine-protein kinase ICK (Homo sapiens) (UniProt Q9UPZ9); assay: Inhibition of human LCK2 assessed as enzyme activity at 1 uM using myelin basic protein as substrate preincubated for 20 mins followed by [gamma-33P]-ATP addition and measured after 120 mins by radiometric Hot-SpotSM Kinase assay relative to control
T1 sequence (whole entry): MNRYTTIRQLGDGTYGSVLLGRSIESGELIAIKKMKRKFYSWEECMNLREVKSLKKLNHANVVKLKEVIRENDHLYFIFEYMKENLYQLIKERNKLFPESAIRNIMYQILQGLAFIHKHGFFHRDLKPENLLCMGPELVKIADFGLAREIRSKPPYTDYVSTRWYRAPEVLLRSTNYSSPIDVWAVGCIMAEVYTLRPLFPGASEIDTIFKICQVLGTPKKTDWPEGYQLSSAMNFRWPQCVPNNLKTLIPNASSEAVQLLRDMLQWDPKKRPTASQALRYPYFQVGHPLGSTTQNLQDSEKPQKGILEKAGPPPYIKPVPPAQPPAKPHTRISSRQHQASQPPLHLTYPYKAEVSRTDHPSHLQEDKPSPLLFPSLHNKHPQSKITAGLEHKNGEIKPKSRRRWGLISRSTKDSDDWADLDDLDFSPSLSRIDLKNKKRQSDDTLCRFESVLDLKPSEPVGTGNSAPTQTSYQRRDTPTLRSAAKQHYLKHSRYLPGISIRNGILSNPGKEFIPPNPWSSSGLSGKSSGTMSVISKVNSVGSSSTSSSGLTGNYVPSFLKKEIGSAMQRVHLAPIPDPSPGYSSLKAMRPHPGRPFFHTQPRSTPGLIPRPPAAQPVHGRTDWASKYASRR

[3] = molecular target: Epidermal growth factor receptor (Homo sapiens) (UniProt P00533); assay: Inhibition of human EGFR assessed as enzyme activity at 1 uM using poly[Glu:Tyr] (4:1) as substrate preincubated for 20 mins followed by [gamma-33P]-ATP addition and measured after 120 mins by radiometric Hot-SpotSM Kinase assay relative to control
Sequence of Epidermal growth factor receptor (Homo sapiens) (P00533 whole entry): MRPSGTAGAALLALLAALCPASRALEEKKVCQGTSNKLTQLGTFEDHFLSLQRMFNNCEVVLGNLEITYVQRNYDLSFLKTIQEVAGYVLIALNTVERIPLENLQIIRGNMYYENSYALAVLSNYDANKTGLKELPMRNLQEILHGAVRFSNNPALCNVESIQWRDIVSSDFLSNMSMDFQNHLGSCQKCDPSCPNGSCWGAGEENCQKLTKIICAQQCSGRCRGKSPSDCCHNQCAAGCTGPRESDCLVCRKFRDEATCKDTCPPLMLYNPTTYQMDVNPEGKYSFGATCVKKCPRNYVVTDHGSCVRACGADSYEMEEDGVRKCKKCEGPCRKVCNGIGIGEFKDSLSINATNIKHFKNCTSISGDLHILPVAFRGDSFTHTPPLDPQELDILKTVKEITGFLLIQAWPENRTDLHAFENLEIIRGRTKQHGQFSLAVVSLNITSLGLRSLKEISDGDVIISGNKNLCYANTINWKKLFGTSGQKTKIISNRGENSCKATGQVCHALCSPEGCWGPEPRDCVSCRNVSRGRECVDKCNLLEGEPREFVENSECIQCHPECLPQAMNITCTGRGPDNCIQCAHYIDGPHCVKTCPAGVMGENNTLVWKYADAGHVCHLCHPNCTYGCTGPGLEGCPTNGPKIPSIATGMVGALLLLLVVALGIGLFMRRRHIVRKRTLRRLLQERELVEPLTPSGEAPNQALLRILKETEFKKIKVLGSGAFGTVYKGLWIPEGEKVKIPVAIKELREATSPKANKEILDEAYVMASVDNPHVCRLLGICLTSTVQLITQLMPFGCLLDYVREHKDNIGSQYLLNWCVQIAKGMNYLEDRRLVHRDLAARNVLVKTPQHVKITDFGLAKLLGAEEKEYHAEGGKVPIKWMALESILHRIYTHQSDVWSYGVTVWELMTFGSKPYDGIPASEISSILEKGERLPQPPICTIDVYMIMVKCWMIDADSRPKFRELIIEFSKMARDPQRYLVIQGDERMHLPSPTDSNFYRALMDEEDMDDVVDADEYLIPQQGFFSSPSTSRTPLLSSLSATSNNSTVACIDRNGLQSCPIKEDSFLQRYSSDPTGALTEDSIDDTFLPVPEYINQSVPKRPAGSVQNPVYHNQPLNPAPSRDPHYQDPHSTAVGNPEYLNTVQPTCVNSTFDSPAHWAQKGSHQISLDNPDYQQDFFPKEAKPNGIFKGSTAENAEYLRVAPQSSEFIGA

[4] = molecular target: Casein kinase II subunit alpha (Homo sapiens) (UniProt P68400); assay: Inhibition of human CK2a assessed as enzyme activity at 1 uM using RRRDDDSDDD as substrate preincubated for 20 mins followed by [gamma-33P]-ATP addition and measured after 120 mins by radiometric Hot-SpotSM Kinase assay relative to control
Sequence of Casein kinase II subunit alpha (Homo sapiens) (P68400 whole entry, looked up): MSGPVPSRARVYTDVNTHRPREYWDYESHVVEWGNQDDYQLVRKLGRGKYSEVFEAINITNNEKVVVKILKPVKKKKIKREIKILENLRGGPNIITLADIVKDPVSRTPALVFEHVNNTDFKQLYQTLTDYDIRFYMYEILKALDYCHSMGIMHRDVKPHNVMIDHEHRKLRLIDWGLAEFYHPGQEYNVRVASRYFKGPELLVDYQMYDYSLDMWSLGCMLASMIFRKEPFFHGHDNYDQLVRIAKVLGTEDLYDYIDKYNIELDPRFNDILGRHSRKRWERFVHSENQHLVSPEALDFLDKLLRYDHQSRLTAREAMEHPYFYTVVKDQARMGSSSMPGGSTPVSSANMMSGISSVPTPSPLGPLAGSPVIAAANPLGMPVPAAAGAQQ

[5] = molecular target: Bone morphogenetic protein receptor type-1B (Homo sapiens) (UniProt O00238); assay: Inhibition of human ALK6 assessed as enzyme activity at 1 uM using casein as substrate preincubated for 20 mins followed by [gamma-33P]-ATP addition and measured after 120 mins by radiometric Hot-SpotSM Kinase assay relative to control
[6] = molecular target: Myosin-IIIa (Homo sapiens) (UniProt Q8NEV4); assay: Inhibition of human MYO3A assessed as enzyme activity at 1 uM using myelin basic protein as substrate preincubated for 20 mins followed by [gamma-33P]-ATP addition and measured after 120 mins by radiometric Hot-SpotSM Kinase assay relative to control
Sequence of Myosin-IIIa (Homo sapiens) (Q8NEV4 whole entry): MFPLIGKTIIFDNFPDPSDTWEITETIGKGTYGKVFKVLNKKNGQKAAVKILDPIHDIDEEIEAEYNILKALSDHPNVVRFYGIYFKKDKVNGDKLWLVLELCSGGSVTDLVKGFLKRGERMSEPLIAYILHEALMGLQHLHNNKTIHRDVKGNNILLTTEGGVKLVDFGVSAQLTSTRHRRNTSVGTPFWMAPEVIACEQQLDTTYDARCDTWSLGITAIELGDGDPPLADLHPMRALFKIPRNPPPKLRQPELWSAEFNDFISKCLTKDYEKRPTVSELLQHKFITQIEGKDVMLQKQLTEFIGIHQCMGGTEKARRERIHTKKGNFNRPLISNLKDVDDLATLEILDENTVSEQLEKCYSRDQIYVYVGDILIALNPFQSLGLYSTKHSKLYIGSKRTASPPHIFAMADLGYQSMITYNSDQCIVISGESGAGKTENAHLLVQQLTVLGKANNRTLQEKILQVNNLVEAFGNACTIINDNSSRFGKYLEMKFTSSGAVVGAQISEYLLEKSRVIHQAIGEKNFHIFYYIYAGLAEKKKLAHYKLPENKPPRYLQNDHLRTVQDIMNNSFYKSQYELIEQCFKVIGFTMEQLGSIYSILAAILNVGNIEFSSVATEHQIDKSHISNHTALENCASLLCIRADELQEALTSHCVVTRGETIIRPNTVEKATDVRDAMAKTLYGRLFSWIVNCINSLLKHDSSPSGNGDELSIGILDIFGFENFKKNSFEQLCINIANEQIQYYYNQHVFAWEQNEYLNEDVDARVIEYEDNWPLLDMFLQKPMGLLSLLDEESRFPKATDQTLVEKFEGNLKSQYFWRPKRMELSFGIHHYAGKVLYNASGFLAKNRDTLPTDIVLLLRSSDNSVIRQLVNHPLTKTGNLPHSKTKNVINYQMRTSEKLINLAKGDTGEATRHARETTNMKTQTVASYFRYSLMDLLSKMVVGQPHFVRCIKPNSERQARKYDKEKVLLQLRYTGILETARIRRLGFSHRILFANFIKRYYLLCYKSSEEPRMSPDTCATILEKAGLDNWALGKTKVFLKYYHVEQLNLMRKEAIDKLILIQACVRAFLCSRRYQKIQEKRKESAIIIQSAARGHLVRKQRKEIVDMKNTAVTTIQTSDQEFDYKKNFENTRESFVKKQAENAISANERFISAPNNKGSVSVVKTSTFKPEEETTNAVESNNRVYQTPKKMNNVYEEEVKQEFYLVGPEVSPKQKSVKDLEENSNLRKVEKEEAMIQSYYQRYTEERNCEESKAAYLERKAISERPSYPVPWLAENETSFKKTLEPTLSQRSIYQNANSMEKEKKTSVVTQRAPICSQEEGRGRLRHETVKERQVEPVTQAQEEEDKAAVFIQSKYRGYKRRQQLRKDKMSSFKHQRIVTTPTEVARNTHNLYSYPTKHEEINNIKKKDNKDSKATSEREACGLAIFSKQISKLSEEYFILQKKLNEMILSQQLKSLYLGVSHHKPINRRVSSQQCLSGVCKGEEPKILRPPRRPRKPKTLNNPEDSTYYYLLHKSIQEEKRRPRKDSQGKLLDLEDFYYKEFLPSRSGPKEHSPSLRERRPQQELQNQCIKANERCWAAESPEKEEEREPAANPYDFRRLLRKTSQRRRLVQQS

[7] = molecular target: T2, Ephrin type-B receptor 4 (Homo sapiens) (UniProt P54760); assay: Inhibition of human EPHB4 assessed as enzyme activity at 1 uM using poly[Glu:Tyr] (4:1) as substrate preincubated for 20 mins followed by [gamma-33P]-ATP addition and measured after 120 mins by radiometric Hot-SpotSM Kinase assay relative to control
T2 sequence (whole entry): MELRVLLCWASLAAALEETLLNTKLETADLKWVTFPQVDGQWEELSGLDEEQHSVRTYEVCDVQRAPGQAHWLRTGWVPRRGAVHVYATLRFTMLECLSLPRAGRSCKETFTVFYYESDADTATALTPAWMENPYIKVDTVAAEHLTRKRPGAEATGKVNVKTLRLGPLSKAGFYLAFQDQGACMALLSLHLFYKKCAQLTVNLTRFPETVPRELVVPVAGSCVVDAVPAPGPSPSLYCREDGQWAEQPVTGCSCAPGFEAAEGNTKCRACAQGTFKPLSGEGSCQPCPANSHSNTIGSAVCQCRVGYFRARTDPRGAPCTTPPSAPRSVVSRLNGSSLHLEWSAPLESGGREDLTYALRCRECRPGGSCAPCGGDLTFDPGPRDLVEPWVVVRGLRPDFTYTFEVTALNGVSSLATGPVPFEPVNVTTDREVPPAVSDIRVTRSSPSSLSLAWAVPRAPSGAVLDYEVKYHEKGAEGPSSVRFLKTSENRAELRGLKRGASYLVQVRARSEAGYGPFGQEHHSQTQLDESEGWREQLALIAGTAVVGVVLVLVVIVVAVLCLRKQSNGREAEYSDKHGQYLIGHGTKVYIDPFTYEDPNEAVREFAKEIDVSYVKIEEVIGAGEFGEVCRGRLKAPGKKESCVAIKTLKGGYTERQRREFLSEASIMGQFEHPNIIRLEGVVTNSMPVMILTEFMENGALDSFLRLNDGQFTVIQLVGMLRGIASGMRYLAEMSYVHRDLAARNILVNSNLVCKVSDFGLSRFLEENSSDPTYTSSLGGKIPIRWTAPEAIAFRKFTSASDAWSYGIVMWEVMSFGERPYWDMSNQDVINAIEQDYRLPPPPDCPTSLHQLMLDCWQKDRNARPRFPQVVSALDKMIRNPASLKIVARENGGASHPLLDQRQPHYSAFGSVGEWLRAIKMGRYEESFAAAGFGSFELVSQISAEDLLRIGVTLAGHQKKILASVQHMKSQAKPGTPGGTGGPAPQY

[8] = molecular target: Serine/threonine-protein kinase NIM1 (Homo sapiens) (UniProt Q8IY84); assay: Inhibition of human NIM1 assessed as enzyme activity at 1 uM using KKKVSRSGLYRSPSMPENLNRPR as substrate preincubated for 20 mins followed by [gamma-33P]-ATP addition and measured after 120 mins by radiometric Hot-SpotSM Kinase assay relative to control
Sequence of Serine/threonine-protein kinase NIM1 (Homo sapiens) (Q8IY84 whole entry): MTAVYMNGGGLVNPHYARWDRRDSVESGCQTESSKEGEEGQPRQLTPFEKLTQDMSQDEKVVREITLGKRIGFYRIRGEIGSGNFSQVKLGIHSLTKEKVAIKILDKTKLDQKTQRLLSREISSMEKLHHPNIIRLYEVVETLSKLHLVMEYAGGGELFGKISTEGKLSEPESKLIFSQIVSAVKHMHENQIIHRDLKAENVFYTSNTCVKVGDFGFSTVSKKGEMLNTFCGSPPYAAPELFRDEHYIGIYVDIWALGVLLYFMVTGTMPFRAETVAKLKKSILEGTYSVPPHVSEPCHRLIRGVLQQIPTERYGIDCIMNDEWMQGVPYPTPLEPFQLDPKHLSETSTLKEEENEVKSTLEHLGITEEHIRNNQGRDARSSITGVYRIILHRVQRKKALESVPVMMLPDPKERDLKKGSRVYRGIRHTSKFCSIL

[9] = molecular target: Tyrosine-protein kinase JAK1 (Homo sapiens) (UniProt P23458); assay: Inhibition of human JAK1 assessed as enzyme activity at 1 uM using poly[Glu:Tyr] (4:1) as substrate preincubated for 20 mins followed by [gamma-33P]-ATP addition and measured after 120 mins by radiometric Hot-SpotSM Kinase assay relative to control
Sequence of Tyrosine-protein kinase JAK1 (Homo sapiens) (P23458 whole entry): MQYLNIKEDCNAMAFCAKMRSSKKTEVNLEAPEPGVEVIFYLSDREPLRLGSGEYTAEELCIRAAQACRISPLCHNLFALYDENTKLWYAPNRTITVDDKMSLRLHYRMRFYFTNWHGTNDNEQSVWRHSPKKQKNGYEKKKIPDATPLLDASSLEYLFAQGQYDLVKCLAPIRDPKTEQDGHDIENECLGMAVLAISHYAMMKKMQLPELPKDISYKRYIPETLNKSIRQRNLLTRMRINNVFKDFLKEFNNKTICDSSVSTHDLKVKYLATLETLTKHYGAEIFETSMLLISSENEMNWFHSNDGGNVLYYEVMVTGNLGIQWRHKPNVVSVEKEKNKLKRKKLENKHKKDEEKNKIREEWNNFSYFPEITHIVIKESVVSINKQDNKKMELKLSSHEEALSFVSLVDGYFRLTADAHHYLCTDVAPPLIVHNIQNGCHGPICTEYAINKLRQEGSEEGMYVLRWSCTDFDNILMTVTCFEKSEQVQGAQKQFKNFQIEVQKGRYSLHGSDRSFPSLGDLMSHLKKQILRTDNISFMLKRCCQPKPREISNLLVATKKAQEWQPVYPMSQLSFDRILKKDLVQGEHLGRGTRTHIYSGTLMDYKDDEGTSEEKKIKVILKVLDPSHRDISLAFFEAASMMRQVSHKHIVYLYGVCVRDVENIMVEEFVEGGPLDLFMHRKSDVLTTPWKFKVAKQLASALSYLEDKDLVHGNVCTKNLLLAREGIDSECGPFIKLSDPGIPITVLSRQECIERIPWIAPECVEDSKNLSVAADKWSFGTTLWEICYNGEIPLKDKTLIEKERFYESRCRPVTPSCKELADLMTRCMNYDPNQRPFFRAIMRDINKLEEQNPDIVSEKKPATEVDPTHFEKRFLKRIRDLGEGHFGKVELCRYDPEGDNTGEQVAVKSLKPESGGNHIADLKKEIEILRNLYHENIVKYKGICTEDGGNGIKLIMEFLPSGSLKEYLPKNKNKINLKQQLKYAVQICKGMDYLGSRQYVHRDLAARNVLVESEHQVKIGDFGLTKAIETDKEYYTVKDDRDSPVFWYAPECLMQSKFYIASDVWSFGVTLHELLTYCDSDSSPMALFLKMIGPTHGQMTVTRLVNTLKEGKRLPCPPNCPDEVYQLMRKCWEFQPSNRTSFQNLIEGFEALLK

SMILES | Activity [1] [%] | Activity [2] [%] | Activity [3] [%] | Activity [4] [%] | Activity [5] [%] | Activity [6] [%] | Activity [7] [%] | Activity [8] [%] | Activity [9] [%]
CC[C@H](Nc1ncnc2[nH]cnc12)c1nc2cccc(F)c2c(=O)n1-c1ccccc1 | 100 | 100 | 95.4 | 96 | 103 | 91.7 | 92.2 | 93.6 | 85.6
CC(C)Oc1ccc(-c2nn([C@@H](C)c3oc4ccc(F)cc4c(=O)c3-c3cccc(F)c3)c3ncnc(N)c23)cc1F [UMBRALISIB] | 107 | 101 | 97.7 | 78.2 | 110 | 84.7 | 89.7 | 93 | 83.4
C[C@H](Nc1ncnc2nc[nH]c12)c1cc2cccc(Cl)c2c(=O)n1-c1ccccc1 | 100 | 91.6 | 99.1 | 83.6 | 103 | 93.6 | 91.5 | 94 | 84.6
